Data from patent US20140357688A1, “METHOD FOR INHIBITING EZH2 EXPRESSION IN BREAST CANCER CELLS” (Yung Shin Pharm. Ind. Co., Ltd., priority 2013, published 2014).
Blank lines part the entries; values can stand above or below the compound they belong to.

How the values were obtained:
[1] = tested on: MDA-MB-468 xenograft; assay: MDA-MB-468 breast cancer xenograft animal model; type: in vivo, Nu/Nu mice
Procedure: MDA-MB-468 cells were used to inoculate Nu/Nu mice. (A, left) Tumor bearing mice were given vehicle (10 μl DMSO, CTL) or YC-1 (30 and 60 mg/kg/day) by ip treatment. (B, right) Tumor bearing mice were given vehicle (normal saline, CTL) or YC-1-succinate (YC-1-S; 20, 40, and 80 mg/kg/day) by oral administration. During treatment period, tumor volume and body weights of mice were measured once per 3 days. Data are expressed as mean of tumor volume (mm^3)±S.E.M. from 6 mice (YC-1 treatment) or 10 mice (YC-1-S treatment). Tumor weights (B) and body weights of mice (C) in control and YC-1/YC-1-S-treated groups were recorded.
Nu/Nu female mice (four weeks old) were from National Laboratory Animal Center, Taipei, Taiwan. Mice were maintained under procedures and guidelines from the Institutional Animal Care and Use of the National Health Research Institutes. MDA-MB-468 breast cancer cells (5×10^6 cells per mouse) were suspended in 0.1 ml of Matrigel solution (50%, v/v, Matrigel in 1×PBS) and inoculated into the mammary fat pads of nude mice. When the tumor masses reached to 100 mm^3, the tumor bearing mice were randomly divided into different groups for different dosage of YC-1 treatments. The mice were given by intraperitoneal injection with YC-1 or oral administration of YC-1-succinate. Tumor size and body weights of mice were measured once per 3 days and tumor volume (mm^3) was calculated as the equation: length×[…]. At the end of experiments, mice were sacrificed and tumor nodules were dissected and weighted. Tumor tissues were subjected to western blot analysis.

[2] = In vivo pharmacokinetic analysis
[3] = tested on: MDA-MB-468; assay: MTT cell viability assay; type: cell-based, human; conditions: inhibitor pretreatment, then 3 μM YC-1 for 6 h
Procedure: (A) Cells were treated with indicated concentration of YC-1 for 6, 24, and 48 h. Cell viability was determined by MTT method. (B) MDA-MB-468 cells were treated with 3 μM YC-1 for 0, 6, and 12 h, and then stained with fluorescence diacetate (FDA) and propidium iodide (PI). Cell morphology was assessed by fluorescence microscopy with magnification ×20 (upper 3 rows) or ×40 (lowest row). (C) MDA-MB-468 cells were treated with 3 μM YC-1 for 24 h, cells were lysed and subjected to western blot analysis described in Materials and Methods. β-actin is a loading control. Blots were representative of results from three independent experiments. (D) Cells were treated with vehicle (DMSO, as control) or 3 μM YC-1 for 6 h. The cell cycles were analyzed by flow cytometry. (E) Cells were treated with indicated concentration of YC-1 and then performed with clonogenic assay.
Human breast cancer cells, MDA-MB-468, MDA-MB-157, MDA-MB-231, MDA-MB-453, and Hs578T, and immortalized mammary epithelial cell lines, 184A1 and MCF-10A, were obtained from American Type Culture Collection (Manassas, Va., USA). MDA-MB-468, MDA-MB-157, MDA-MB-231, and MDA-MB-453 were cultured in DMEM/F12 medium supplemented with 10% FBS, 100 U/ml penicillin, and 100 μg/ml streptomycin. Hs578T was cultured in RPMI 1640 medium containing 10% FBS, 2 mM L-glutamine, 100 U/ml penicillin, and 100 μg/ml streptomycin. 184A1 and MCF-10A were cultured in DMEM/F12 medium supplemented with 5% horse serum, 0.5 μg/ml hydrocortisone, 10 μg/ml insulin, 20 ng/ml epidermal growth factor, 0.1 μg/ml cholera enterotoxin, 2 mM L-glutamine, 100 U/ml penicillin, and 100 μg/ml streptomycin. All cells were maintained in a humidified incubator containing 5% CO2. For hypoxia treatment, cells were incubated in a chamber flushed with 1% 02, 5% CO2, and 94% N2 at 37° C.
Cell viability was measured by 3-(4,5-Dimethyl-2-thiazolyl)2,5-diphenyl-2H-tetrazolium bromide (MTT) assay.

[4] = tested on: EZH2; assay: Western blot of EZH2 protein expression in MDA-MB-468 cells; type: cell-based, human; conditions: inhibitor pretreatment, then 3 μM YC-1 for 6 h
Procedure: Cells were harvested and performed with western blotting analysis. […] The levels of protein expression were quantitated and shown under blots. (C) Cells were transfected with EZH2 shRNA for 0, 1, 2, 3, and 4 days and collected for determination of cell viability (left) and protein expression (right). (D)(E) After 4 days of EZH2 knockdown, cells were incubated with 3 μM YC-1 for 4 h and detected cell viability (D) and protein contents (E). (F) Tumor specimens were isolated and protein was extracted for western blot analysis.
Cells were lysed in PBS containing proteinase inhibitor and phosphatase inhibitors and sonication. Protein concentration was measured using the Bio-Rad protein assay kit (Bio-Rad Laboratories, Hercules, Calif., USA). Lysate protein was separated by electrophoresis of SDS-PAGE and transferred to Immobilon P membrane (EMD Millipore). The membranes were incubated with appropriate primary antibodies and horseradish peroxidase-conjugated secondary antibodies (EMD Millipore). The signaling was visualized using Chemiluminescence substrate kit (EMD Millipore) and collected by the Luminesence image analyzer, LAS4000 (Fuji Photo Film Co., Tokyo, Japan). The band intensities were analyzed and quantified by the Multi Gauge software (Fuji Photo Film).

[5] = tested on: EZH2; assay: EZH2 ubiquitination assay; type: cell-based, human; conditions: inhibitor pretreatment, then 3 μM YC-1
Procedure: (A) Cells were pretreated with cyclohexamide (30 μM) for 1 h and followed by induction with vehicle (DMSO) or YC-1 (3 μM) for indicated time. Cells were harvested for detection of protein expression. (B)(C) Cells were incubated with 3 μM YC-1 for 6 h in the presence of vehicle, 3 μM MG-132 or 30 μM NH4Cl. Cells were harvested for detection of protein expression (B) or cell viability assay (C). The levels of protein expression were quantitated and shown under blots. (D) After treatment of 3 μM YC-1 for indicated time, cells were harvested and lysed for immunoprecipitation and western blot analysis described in Materials and Methods.
Cells were lysed with MLB buffer (25 mM HEPES, pH 7.5, 150 mM NaCl, 1% Igepal CA-630, 10 mM MgCl2, 1 mM EDTA, 2% glycerol, 1 mM Na3VO4, 1 mM NaF, 1 mM PMSF, 10 μg/ml of leupeptin, aprotinin, and pepstatin A). After sonication, cell lysates were centrifugated at 12,000×g for 10 min at 4° C. Supernatants were incubated with anti-EZH2 antibody (BD Biosciences) and protein A Sepharose beads (GE Health Care) overnight at 4° C. After washing with MLB buffer, precipitated proteins were boiled in 1× Laemmli sample buffer and then separated with SDS-PAGE. The ubiquitination levels of EZH2 were recognized by using anti-Ubiquitn monoclonal antibody.

[6] = tested on: ERK; assay: Western blot of ERK phosphorylation in MDA-MB-468 cells; type: cell-based, human; conditions: 3 μM YC-1 for 6 h in the presence of inhibitor
Procedure: (A) Cells were pretreated with KT5720 (3 μM), KT5823 (3 μM), NS2028 (30 μM), or ODQ (30 μM) and then stimulated with YC-1 (3 μM) for 6 h. Cells were collected for measurement of protein expression (left) or cell viability (middle). After 3 days of PKA knockdown, cells were induced with 3 μM YC-1 for 4 h. Cells were harvested and analyzed using western blotting (right). The levels of protein expression were quantitated and shown under blots. […] Cells were collected and analyzed protein expression (left) and cells viability (middle). p44/42 MAPK knockdown cells were treated with 3 μM YC-1 for 4 h and then detected protein expression (left). (C) Cells were treated with 3 μM YC-1 for indicated time. Cells were harvested for detection of protein phosphorylated activation. […] Six hours later, cells were harvested for EZH2 ubiquitination assay. (E) Cells were induced by 3 μM YC-1 for 6 h in the presence of PD98059 or KT5720. Cells were collected for the determination of ERK phosphorylation. Cells were lysed in PBS containing proteinase inhibitor and phosphatase inhibitors and sonication. Protein concentration was measured using the Bio-Rad protein assay kit (Bio-Rad Laboratories, Hercules, Calif., USA). […] The band intensities were analyzed and quantified by the Multi Gauge software (Fuji Photo Film).

conversion of prodrug into active form [2]: quickly converted into its active form
SMILES: O=C(O)CCC(=O)OCc1ccc(-c2nn(Cc3ccccc3)c3ccccc23)o1 [YC-1-succinate, succinic acid mono-[5-(1-benzyl-1H-indazol-3-yl)-furan-2-ylmethyl]ester]
tumor growth ([1]; 20, 40, and 80 mg/kg orally): dose-dependent inhibition
body weights of mice ([1]; 20, 40, and 80 mg/kg/day oral): not affected
tumor weight ([1]; 20, 40, and 80 mg/kg/day oral): dose-dependently reduced tumor weight

SMILES: CCCCCCOC(=O)[C@]1(O)C[C@@H]2O[C@@]1(C)n1c3ccccc3c3c4c(c5c6ccccc6n2c5c31)C(=O)NC4 [KT5720]
effect of inhibitor on YC-1-induced inhibition of cell viability [3]: significantly reversed
effect of inhibitor on YC-1-induced EZH2 inhibition [4]: significantly reversed
effect of inhibitor on YC-1-induced EZH2 ubiquitination [5]: could be blocked
effect of inhibitor on ERK phosphorylation [6]: did not affect ERK phosphorylation
